≈ marks a conversion by molar mass, not a printed value.
Columns and labels:
Type in all cases: functional, cell-based
[1] = tested on: A549; experiment: Cytotoxicity against human A549 cells
[2] = tested on: SK-OV-3; experiment: Cytotoxicity against human SKOV3 cells
[3] = tested on: SK-MEL-2; experiment: Cytotoxicity against human SK-MEL-2 cells
[4] = tested on: XF498; experiment: Cytotoxicity against human XF498 cells
[5] = tested on: HCT-15; experiment: Cytotoxicity against human HCT15 cells

| SMILES | EC50 [1] [µg/mL] | EC50 [2] [µg/mL] | EC50 [3] [µg/mL] | EC50 [4] [µg/mL] | EC50 [5] [µg/mL] |
| --- | --- | --- | --- | --- | --- |
| CN(C)C(=N)N.CN(C)C(=N)N.O=C(NCCSSCCNC(=O)/C(Cc1ccc(OS(=O)(=O)O)c(Br)c1)=N/O)/C(Cc1ccc(OS(=O)(=O)O)c(Br)c1)=N/O [PSAMMAPLIN A SULFATE DIGUANIDIUM SALT] | 12.3 | 1.79 | 4.48 | 16.9 | 43.2 |
| COc1cccc2c1C(=O)c1c(O)c3c(c(O)c1C2=O)C[C@@](O)(C(=O)CO)C[C@@H]3O[C@H]1C[C@H](N)[C@H](O)[C@H](C)O1 [DOXORUBICIN] | 0.01 (≈ 0.0184 µM) | 0.01 (≈ 0.0184 µM) | 0.01 (≈ 0.0184 µM) | 0.03 (≈ 0.0552 µM) | 0.03 (≈ 0.0552 µM) |
| O=C(NCCSSCCNC(=O)/C(Cc1ccc(O)c(Br)c1)=N/O)/C(Cc1ccc(OS(=O)(=O)[O-])c(Br)c1)=N\O.[Na+] [PSAMMAPLIN A SULFATE SODIUM SALT] | 0.18 | 0.16 | 1.13 | 0.18 | 1.25 |
| N#CSCCNC(=O)/C(Cc1ccc(O)c(Br)c1)=N/O [PSAMMAPLIN B] | 12.8 (≈ 35.8 µM) | 9.27 (≈ 25.9 µM) | 19.4 (≈ 54.2 µM) | 10.9 (≈ 30.5 µM) | > 30 |
| CS(=O)(=O)CCNC(=O)/C(Cc1ccc(O)c(Br)c1)=N/O [PSAMMAPLIN I] | 4.15 (≈ 10.9 µM) | 1.76 (≈ 4.64 µM) | 2.84 (≈ 7.49 µM) | 2.96 (≈ 7.81 µM) | 6.51 (≈ 17.2 µM) |
| NC(=O)C(=O)NCCSSCCNC(=O)/C(Cc1ccc(O)c(Br)c1)=N/O [PSAMMAPLIN E] | 1.47 (≈ 3.07 µM) | 0.19 (≈ 0.396 µM) | 0.21 (≈ 0.438 µM) | 1.63 (≈ 3.4 µM) | 1.92 (≈ 4.01 µM) |
| O=C1NCCSSCCNC(=O)/C(=N/O)Cc2ccc(c(Br)c2)Oc2cc(cc(Br)c2O)C/C(=N\O)C(=O)NCCSSCCNC(=O)/C(=N/O)Cc2cc(Br)c(O)c(c2)Oc2ccc(cc2Br)C/C1=N\O [CYCLOBISPSAMMAPLIN A] | 1.95 (≈ 1.47 µM) | 1.21 (≈ 0.913 µM) | 1.14 (≈ 0.861 µM) | 2.88 (≈ 2.17 µM) | 3.82 (≈ 2.88 µM) |
| COC(=O)CCNC(=O)/C(Cc1ccc(O)c(Br)c1)=N/O [PSAMMAPLIN M] | > 30 | > 30 | > 30 | > 30 | > 30 |
